Measurements as given in patent publication US20050080062A1, “Breast cancer treatment regimen” (priority 2003, published 2005).

System: primary breast cancer (hormone receptor positive or unknown)
Assay type: in vivo, postmenopausal women
Method: The study was a phase III randomized double-blind placebo-controlled study of letrozole in postmenopausal women with primary breast cancer completing five years of adjuvant tamoxifen. Patients were allocated to receive either letrozole 2.5 mg or placebo once daily by mouth for five years. Stratification factors at randomization were tumor receptor status (positive, unknown), lymph node status at diagnosis (negative, positive or unknown) and prior adjuvant chemotherapy (yes, no). The primary objective was disease-free survival (DFS). Secondary endpoints included overall survival (OS)(all cause mortality), contralateral breast cancer occurrence, quality of life and long term clinical and laboratory safety with special attention paid to cardiovascular morbidity and mortality and bone fractures. Adverse events were assessed by the NCI Common Toxicity Criteria version 2.0. Quality of life was assessed using the SF-36 and Menopause-Specific Quality of Life questionnaires. Companion studies assessed lipid profiles and changes in bone density.
Premenopausal women who were <50 years at the start of treatment with tamoxifen but who became amenorrheic during the course of adjuvant chemotherapy or during their treatment with tamoxifen and who remained so throughout the ensuing years of tamoxifen treatment and women with LH/FSH levels within post-menopausal limits were also eligible. Other eligibility included: histologically confirmed invasive breast cancer; tumor receptor positive or unknown (ER and/or PgR positive defined as a tumour receptor content of ≧10 fmol/mg protein, or receptor positive by ERICA or PgRICA); tamoxifen discontinued <3 months prior to enrolment; ECOG performance status 0,1 or 2 and a life expectancy of >5 years. […] Ineligibility included: concurrent use of investigational drugs; prior or concurrent malignancy other than skin cancer or carcinoma in situ of the cervix.
Concomitant medications prohibiting enrolment included: systemic hormone replacement therapy or SERMS (selective estrogen receptor modulators). Intermittent use of vaginal estrogens was permitted.
All study participants were randomised. Study medication began within 5 working days of randomisation. Clinical evaluation, routine blood work, toxicity evaluation and mammography (annually only) occurred six monthly in year one and annually thereafter. Serious toxicities and deaths were reported within 24 hours. Treatment was discontinued for: serious intercurrent illness, unacceptable toxicity, disease recurrence and patient request. SF-36 and Menqol questionnaires were completed by a subset of patients at each visit. Fasting lipid samples and bone mineral density evaluations occurred in sub-sets of participants on the bone and lipid companion studies. Recurrence of disease was defined histologically, cytologically or by clinical and/or radiologic suspicion and dated by the first time of detection. Management of recurrent cancer was at the discretion of the treating physician. Patients developing any second malignancy other than non-melanoma skin cancer or carcinoma in-situ of the cervix had to discontinue study therapy.
Interim analyses and other decisions regarding early termination of the study were referred to an independent Data and Safety Monitoring Committee (DSMC) consisting of clinicians, patient representatives and statisticians who reviewed the study twice a year.
Disease free survival, defined as the time from randomization to the time of recurrence of the primary disease (in the breast, chest wall, nodal or metastatic sites) or development of contralateral breast cancer, was the primary endpoint of the study. The sample size calculation assumed a 4 year disease free survival of 88% for patients on the placebo arm and a hazard ratio of 1.28, which represents 2.5% improvement in 4 year disease free survival from 88% to 90.5%. […]

[1] = among 207 events at first analysis

For N#Cc1ccc(C(c2ccc(C#N)cc2)n2cncn2)cc1 [letrozole], the “hazard ratio of patients on placebo versus those on letrozole for OS” value (95% confidence interval from 0.85 to 2.17, stratified two sided log-rank p 0.20) was 1.36, the “hazard ratio of placebo to letrozole for DFS” value (95% confidence interval from 1.33 to 2.34, stratified two sided log-rank p 0.000077) was 1.76 and the “effect on breast cancer recurrence and new primary tumors (in words)” value (after five years of treatment with tamoxifen) was “markedly reduced breast cancer recurrance and new primary tumors”. The “women who developed both contralateral breast cancer and metastatic disease” value [1] was 2 women, the “women who developed contralateral breast cancer only” value [1] was 14 women and the “women with metastatic disease recurrence only” value [1] was 59 women. The “patients coming off study because of progressive disease” value (at the time of the first analysis) was 44 patients, the “patients coming off study because of toxicity” value (female, human, in vivo) was 115 patients and the “toxicity profile (in words)” value (in vivo) was “very favorable toxicity profile”. The “4 year disease free survival (DFS)” value (letrozole 2.5 mg once daily by mouth after five years of adjuvant tamoxifen, first interim analysis, 95% confidence interval from 90% to 95%) was 93%, the “4 year overall survival (OS)” value (letrozole 2.5 mg once daily, first interim analysis, 95% confidence interval from 94% to 98%) was 96% and the “patients who had died at the time of data cut-off” value (of 72 deaths in total, 2593 randomized to letrozole) was 30 patients.
